The record followed here is patent US20090221559A1 (priority 2005, published 2009).

Data set [1] deals with T1, HCV NS5B polymerase (His-tagged, C-terminal 21 amino acid deleted NS5B, HC-J4) (Hepatitis C virus genotype 1b, UniProt O92972).
T1 construct: The cDNA encoding NS5B amino acid 1-570 (HC-J4, genotype 1b); His tag (His6, from pET-21b) (C); made in house; host or cells: E. coli BL21 (DE3)
The data set is described as follows: NS5b polymerase assay (biochemical RdRp assay, 3H-GTP incorporation, SPA beads). Further details: species or system HCV genotype 1b. In short, it runs like this:
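His-tagged C-terminal-21-aa-deleted NS5B (genotype 1b, HC-J4) at 200 nM was preincubated 15 min at RT with compound on 5′-biotinylated oligo(rG13)/poly(rC) template/primer before NTPs. Reaction with 600 nM GTP plus 0.1 μCi 3H-GTP and 5 mM MgCl2 in Tris pH 7.5 ran 2 h at 25 °C. Stopped with EDTA/SPA beads for incorporation counting.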

Data set [2] concerns HCV replicon RNA replication in Huh-7 luc/neo (Huh-Luc) cells. The data set is described as follows: HCV replicon assay (stable replicon cell reporter assay, luciferase read-out). The format is cell-based, HCV type 1b. In short, it runs like this: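 Huh-7 cells stably carry a bicistronic HCV 1b NS3-NS5B subgenomic replicon with firefly luciferase and neo markers. Cells were plated with compound across a concentration range and incubated three days. Replication was measured as luciferase activity to give dose-response curves.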
(A replicon is a self-replicating genome or part of one, used to study replication in cells.)

The mark [3] stands for this setting: NS5B Polymerase Assay IC50, 200 nM enzyme, 3H-GTP incorporation, 2 h at 25° C.
[4] abbreviates: Hepatitis C virus, Huh-7, 72 h, read-out: Replicon Assay EC50, Huh-Luc cells, three days incubation, luciferase activity.
Where [5] appears, read: NS5B Polymerase Assay IC50 (μM).
Setting [6] is: Hepatitis C virus, Huh-7, 72 h, read-out: Replicon Assay EC50 (μM), Huh-Luc cells, incubation of three days, luciferase activity.

Read-outs that look alike come from different tables or passages of the source.

T1 sequence (O92972 2417-3000, looked up, stated change not applied): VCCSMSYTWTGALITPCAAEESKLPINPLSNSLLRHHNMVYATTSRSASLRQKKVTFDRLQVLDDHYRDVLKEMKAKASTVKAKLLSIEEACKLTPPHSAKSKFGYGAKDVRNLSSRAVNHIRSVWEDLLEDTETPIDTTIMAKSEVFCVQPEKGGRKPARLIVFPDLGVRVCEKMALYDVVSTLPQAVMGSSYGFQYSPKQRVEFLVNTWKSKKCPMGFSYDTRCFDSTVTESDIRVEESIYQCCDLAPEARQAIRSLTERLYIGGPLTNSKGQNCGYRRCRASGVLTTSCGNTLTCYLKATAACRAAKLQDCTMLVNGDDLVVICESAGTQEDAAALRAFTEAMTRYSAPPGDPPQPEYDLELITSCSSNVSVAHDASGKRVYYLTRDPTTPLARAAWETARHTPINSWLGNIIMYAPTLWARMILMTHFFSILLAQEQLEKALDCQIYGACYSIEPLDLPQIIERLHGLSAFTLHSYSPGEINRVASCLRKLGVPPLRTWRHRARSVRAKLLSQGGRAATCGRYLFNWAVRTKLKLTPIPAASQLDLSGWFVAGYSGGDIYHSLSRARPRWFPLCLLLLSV

As a reminder, the IC50 is the point on the concentration scale where inhibition reaches its midpoint. Low readings indicate inhibition by little substance, high ones a need for much substance. Broadly, the EC50 is the midpoint of the concentration-response curve. For orientation: melting point means the temperature of the solid-liquid transition. `CN(C)c1ccc(NC(=O)N2c3ccccc3NC3=C(C(=O)CC(C)(C)C3)C2c2ccc(Cl)cc2Cl)cc1` (stereo not drawn) [compound 157] yielded a melting point of 238 °C. In data set [1] (setting [3]), this molecule had an IC50 of 29.5 µM. In addition, the EC50 in data set [2] (setting [4]) turned out to be 1.95 µM.
On to `Cc1cccc2c1NC(c1ccc(Cl)cc1Cl)C1=C(CC(C)(C)CC1=O)N2` (stereo not drawn) [compound 469], for which the melting point was 235 °C. This molecule also yielded a half-inhibitory concentration (IC50) in data set [1] (setting [5]) of 32.3 µM. Moreover, the EC50 in data set [2] (setting [6]) was 8.24 µM.
`Cc1cccc2c1NC1=C(C(=O)CC(C)(C)C1)C(c1ccc(Cl)cc1Cl)N2` (stereo not drawn) [compound 471]: the melting point stood at 225 °C. In data set [1] (setting [5]), this molecule displayed an IC50 of over 133 µM. The EC50 in data set [2] (setting [6]) came out at 14.7 µM.
`CC(=O)N1c2c(Br)cccc2NC2=C(C(=O)CC(C)(C)C2)C1c1ccc(Cl)cc1Cl` (stereo not drawn) [compound 311] showed a melting point of over 260 °C. The molecule further showed a half-inhibitory concentration (IC50) in data set [1] (setting [3]) of 13.3 µM. In data set [2] (setting [4]), the 50% effective concentration (EC50) amounted to 4.03 µM.
The molecule `CC(=O)N1c2ccccc2NC2=C(C(=O)CC(C)(C)C2)C1c1ccc(Cl)cc1Cl` (single isomer, unassigned) [compound 38, 10-Acetyl-11-(2,4-dichlorophenyl)-2,3,4,5,10,11-hexahydro-3,3-dimethyl-1H-dibenzo[b,e][1,4]diazepin-1-one] showed a melting point of over 250 °C. For the same molecule, the half-maximal inhibitory concentration (IC50) in data set [1] (setting [3]) worked out at 2.84 µM. For the same molecule, the EC50 in data set [2] (read-out: Replicon Assay EC50, Huh-Luc cells, three days incubation, luciferase activity) worked out at 23.8 µM.
As to `CC1(C)CC(=O)C2=C(C1)Nc1ccccc1N(C(=O)CCc1ccccc1)C2c1ccc(Cl)cc1Cl` (stereo not drawn) [compound 152], the melting point came to 242 °C. This molecule also gave an IC50 in data set [1] (setting [3]) of 24.1 µM. For the same molecule, in data set [2] (setting [4]), the EC50 came out at 2.5 µM.
In the case of `CC(C)NC(=O)N1c2ccccc2NC2=C(C(=O)CC(C)(C)C2)C1c1ccc(Cl)cc1Cl` (stereo not drawn) [compound 156], the melting point is over 260 °C. In data set [1] (setting [3]), this molecule displayed an IC50 of 5.15 µM. Also, in data set [2] (setting [4]), the EC50 came out at 6.69 µM.
In the same order, the values of `CC(=O)N1c2ccccc2N(Cc2ccccc2)C2=C(C(=O)CC(C)(C)C2)C1c1ccc(Cl)cc1Cl` (stereo not drawn) [compound 323] are 235 °C, 53.8 µM and 1.65 µM.
The corresponding values for `CC1(C)CC(=O)C2=C(C1)Nc1ccccc1N(C(=O)CC#N)C2c1ccc(Cl)cc1Cl` (stereo not drawn) [compound 151] are over 260 °C, 1.25 µM and 18.4 µM.
The corresponding values for `CC(=O)N1c2cccc(C)c2NC2=C(C(=O)CC(C)(C)C2)C1c1ccc(Cl)cc1Cl` (stereo not drawn) [compound 315] are over 260 °C, 4.78 µM and 14.6 µM.
As to `CC1(C)CC(=O)C2=C(C1)Nc1ccccc1N(C(=O)Cc1ccccc1)C2c1ccc(Cl)cc1Cl` (stereo not drawn) [compound 154], the melting point was over 260 °C. The molecule also displayed a 50% inhibitory concentration (IC50) in data set [1] (setting [3]) of 123 µM. The half-maximal effective concentration (EC50) in data set [2] (setting [4]) is 5.46 µM.
In the case of `CC1(C)CC(=O)C2=C(C1)Nc1c(N)cccc1NC2c1ccc(Cl)cc1Cl` (stereo not drawn) [compound 474], the melting point was determined as 248 °C. For the same molecule, in data set [1] (setting [5]), inhibition was half-maximal at 1.72 µM (IC50). Moreover, in data set [2] (setting [6]), the EC50 was determined as 34.1 µM.
`CC(=O)N1c2c(C#N)cccc2NC2=C(C(=O)CC(C)(C)C2)C1c1ccc(Cl)cc1Cl` (stereo not drawn) [compound 313] displayed a melting point of 248 °C. For the same molecule, the IC50 in data set [1] (setting [3]) was determined as 6.04 µM. Also, the concentration for a half-maximal effect (EC50) in data set [2] (setting [4]) turned out to be 27.5 µM.
Regarding `CC(=O)N1c2ccccc2NC2=C(C(=O)CC(C)(C)C2)C1c1ccc(OCc2ccccc2)c(Cl)c1` (single isomer, unassigned) [compound 304, 10-acetyl-11-[4-benzyloxy-3-chlorophenyl]-3,3-dimethyl-2,3,4,5,10,11-hexahydro-1H-dibenzo[b,e][1,4]diazepin-1-one], the melting point was 130 °C. This molecule also came in with a concentration for half-maximal inhibition (IC50) in data set [1] (setting [3]) of 0.46 µM. Besides, the half-maximal effective concentration (EC50) in data set [2] (setting [4]) worked out at 7.59 µM.
`CC(=O)N1c2ccccc2NC2=C(C(=O)CC(C)(C)C2)C1c1ccc(C(F)(F)F)cc1` (stereo not drawn) [compound 120] displayed a melting point of over 250 °C. Besides, the concentration for half-maximal inhibition (IC50) in data set [1] (setting [3]) is over 133 µM. Moreover, the EC50 in data set [2] (setting [4]) turned out to be 31.8 µM.
The molecule `CC1(C)CC(=O)C2=C(C1)Nc1cccc(C#N)c1NC2c1ccc(Cl)cc1Cl` (stereo not drawn) [compound 470] came in with a melting point of 225 °C. Moreover, the IC50 in data set [1] (setting [5]) stood at 23.3 µM. The EC50 in data set [2] (setting [6]) amounted to 16.5 µM.
Molecule `CC1(C)CC(=O)C2=C(C1)Nc1ccccc1N(C(=O)c1ccco1)C2c1ccc(Cl)cc1Cl` (stereo not drawn) [compound 153] registered a melting point of over 260 °C. The same molecule yielded an IC50 in data set [1] (setting [3]) of 4.05 µM. Further, the 50% effective concentration (EC50) in data set [2] (setting [4]) was 18.6 µM.
In the same order, the values of `CC1(C)CC(=O)C2=C(C1)Nc1ccccc1N(C(=O)C(F)(F)F)C2c1ccc(Cl)cc1Cl` (stereo not drawn) [compound 107] are over 260 °C, over 133 µM and 11.5 µM.
`CC(=O)N1c2ccc(C(=O)NCCN3CCOCC3)cc2NC2=C(C(=O)CC(C)(C)C2)C1c1ccc(Cl)cc1Cl` (stereo not drawn) [compound 321, 10-acetyl-N-(morpholin-4-ylethyl)-11-(2,4-dichlorophenyl)-3,3-dimethyl-1-oxo-2,3,4,5,10,11-hexahydro-1H-dibenzo[b,e][1,4]diazepine-7-carboxamide] had a melting point of over 260 °C. The molecule also displayed a half-maximal inhibitory concentration (IC50) in data set [1] (setting [3]) of over 133 µM. The concentration giving a half-maximal response (EC50) in data set [2] (setting [4]) was found to be 72.2 µM.
